Here are results for 1 compound from article PMC4386773 (International Journal of Nanomedicine, 2015).

Data set [1] in a line: Solubility of SNX-2112 in water and oil. It counts as physicochemical.
The conditions of data set [2]: after oral administration; cited from earlier work.
The nature of data set [3]: Nonparticulate PBPK modeling of SNX-2112 disposition in rats. In kind it is in vivo. The settings on record: estimated by nonparticulate PBPK modeling.

SMILES strings stand for the structures. In brackets after ≈: the same amount, converted by molar mass. Marks after values point to notes of the source that are not given here.

`CC1(C)CC(=O)c2c(C(F)(F)F)nn(-c3ccc(C(N)=O)c(N[C@H]4CC[C@H](O)CC4)c3)c2C1` [SNX-2112]: the solubility (commonly the concentration that dissolves in the medium under given conditions) is 5 µg/mL (≈ 10.8 µM) in data set [1] (soybean oil, oil or lipid) and 8 µg/mL (≈ 17.2 µM) in data set [1] (water). The oral bioavailability result in data set [2] is “hardly bioavailable”. Further, the “CLH (hepatic clearance)” value in data set [3] is given as 0.0246 ^a L/h.
